Test results: patent publication US20080214537A1, “BRIDGED PHENANTHRIDINES” (CARA THERAPEUTICS, INC., priority 2007, published 2008)

Assays:
[1] = target: human CB1 receptor (hCB1) (Homo sapiens, UniProt P21554); test: cAMP assay (LANCE TR-FRET) in CHO-K1 cells expressing hCB1; assay type: cell-based; conditions: activity on hCB1 represents inverse agonism; for Emax: CHO-K1, percent of range defined by CP55,940 (1 μM = 100%), read-out: hCB1 % Max Range; for EC50: CHO-K1 cells stably expressing hCB1, intracellular cAMP, NKH-477 prestimulated
Protocol: (§1) The ability of compounds to act as agonists or inverse agonists at human CB2 and CB1 receptors (hCB2, hCB1, respectively) was determined by measuring changes in intracellular cAMP levels. Chinese Hamster Ovary (CHO-K1) cell lines stably expressing hCB2 (Genebank: X74328) or hCB1 (Genebank: X54937) were purchased from Euroscreen (Gosselies, Belgium).
(§2) Cell lines were grown in suspension in EX-CELL 302 CHO Serum-free medium (Sigma, catalog #14324C) supplemented with 1% Fetal Bovine Serum, glutamine and with or without non-essential amino-acids under 0.4 mg/mL G418 selection.
(§3) Receptor mediated responses were determined by measuring changes in intracellular cAMP using LANCE cAMP detection kit (catalog #AD0264, PerkinElmer, Wellesley, Mass.) based on time-resolved fluorescence resonance energy transfer (TR-FRET). Changes in cAMP were determined in cells pre-incubated with IBMX (isobutyl methylxanthine) and prestimulated with NKH-477 (a water soluble forskolin derivative, catalog #1603, Tocris, Ellisville, Mo.) to increase basal cAMP levels as detailed below.
(§4) On the day of the experiment, cells were spun at low speed for 5 min at room temperature. The supernatant was removed and cells were resuspended in stimulation buffer (Hanks Buffered Salt Solution/5 mM HEPES, containing 0.5 mM IBMX (catalog #17018, Sigma) and 0.02% BSA (PerkinElmer, catalog #CR84-100)). Cell clumps were removed by filtering through cell strainer 40 μm (BD Falcon, Discovery Labware, Bedford, Mass.) and diluted to 2×10^5 cells/mL. Antibody supplied with the LANCE cAMP immunoassay kit was then added according to the manufacturer's instructions. An aliquot of cells was taken for un-induced controls. To the remaining cells was added NKH-477 (a water soluble forskolin derivative, Tocris catalog #1603) to a final concentration of 2-8 μM. Cells were then incubated for either 25 or 30 min at room temperature prior to adding to Proxiplates containing test compounds (final DMSO concentration was less than 0.5%) with a Multidrop bulk dispenser, followed by a sixty minute incubation at room temperature. The response was stopped by addition of the detection mix supplied with the LANCE kit.
(§5) The reagents were allowed to equilibrate for three hours prior to reading on an Envision multi-mode detector (PerkinElmer). TR-FRET was measured using a 330-380 nm excitation filter, 615 and 665 nm emission filters, dichroic mirror 380 nm and Z=1 mm.
(§6) Cyclic AMP concentrations in each well were back-calculated from a cAMP standard curve run concurrently during each assay. Each plate contained 16 wells of forskolin stimulated cells and 16 wells of forskolin plus CP55,940-treated. CP55,940-treated cells were treated with CP55,940 (Tocris catalog #0949) at 1 μM and the maximal response was used as the full range (100%) standard. WIN55,212 (Tocris catalog #1038) was used as an internal standard. Concentrations of cAMP were expressed as a percent of the difference of these two groups of wells. Concentration-response data including EC50 (the concentration of compound producing 50% of the maximal response) and intrinsic activity (the percent maximal activation compared to full activation by CP55,940) were determined using a four-parameter non-linear regression algorithm (Xlfit equation 251, IDBS).

[2] = target: human CB2 receptor (hCB2) (Homo sapiens, UniProt P34972); test: cAMP assay (LANCE TR-FRET) in CHO-K1 cells expressing hCB2; assay type: cell-based; conditions: for Emax: CHO-K1, intrinsic activity: percent maximal activation compared to full activation by CP55,940 (1 μM = 100%), read-out: hCB2 % Max Range; for EC50: CHO-K1 cells stably expressing hCB2, intracellular cAMP, NKH-477 prestimulated, average of at least three replicates
Protocol: as §1, §2, §3, §4, §5
as §6, with “IDBS). Assays were performed with at least three replicates per compound and averaged results for the several compounds of the invention are shown in Table I.” for “IDBS).”

Sequence of human CB1 receptor (hCB1) (P21554 whole entry): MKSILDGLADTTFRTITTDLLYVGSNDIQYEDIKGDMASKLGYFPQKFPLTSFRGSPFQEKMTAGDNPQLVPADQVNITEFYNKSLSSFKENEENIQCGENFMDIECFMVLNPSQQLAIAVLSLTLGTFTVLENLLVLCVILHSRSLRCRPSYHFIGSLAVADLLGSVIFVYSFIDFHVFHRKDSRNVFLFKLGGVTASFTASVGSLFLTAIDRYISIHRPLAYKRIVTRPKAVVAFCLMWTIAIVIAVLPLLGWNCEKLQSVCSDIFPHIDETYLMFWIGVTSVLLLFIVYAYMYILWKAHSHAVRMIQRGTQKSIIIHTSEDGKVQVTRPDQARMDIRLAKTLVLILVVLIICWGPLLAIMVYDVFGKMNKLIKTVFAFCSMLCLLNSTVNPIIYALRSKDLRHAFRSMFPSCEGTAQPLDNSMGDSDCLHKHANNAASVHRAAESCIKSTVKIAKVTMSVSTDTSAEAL
Sequence of human CB2 receptor (hCB2) (P34972 whole entry): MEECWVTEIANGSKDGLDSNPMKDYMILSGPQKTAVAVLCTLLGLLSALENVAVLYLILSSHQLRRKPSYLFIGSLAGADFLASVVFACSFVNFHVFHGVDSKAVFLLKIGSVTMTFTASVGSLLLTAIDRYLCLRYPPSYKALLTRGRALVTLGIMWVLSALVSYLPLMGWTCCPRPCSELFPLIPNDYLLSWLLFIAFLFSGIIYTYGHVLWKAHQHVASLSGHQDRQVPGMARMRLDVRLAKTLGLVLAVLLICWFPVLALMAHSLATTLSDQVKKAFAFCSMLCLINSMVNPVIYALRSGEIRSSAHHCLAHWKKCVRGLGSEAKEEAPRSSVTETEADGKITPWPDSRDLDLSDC

For `COCCC(=O)Nc1ccc2c(c1)C1C3CCC(C3)C1C(c1ccccc1)N2` (stereo not drawn) [(12), Bridged 3-methoxy-N-(6-phenyl-5,6,6a,7,8,9,10,10a-octahydrophenanthridin-2-yl)propanamide], the Emax [1] was less than 40%, the EC50 [1] was greater than 10000 nM and the Emax [2] was 82%. For the same molecule, the EC50 [2] was 12.4 nM.
`O=C(Nc1ccc2c(c1)C1C3CCC(C3)C1C(c1ccccc1)N2)C1CC1` (stereo not drawn) [(19), Bridged N-(6-phenyl-5,6,6a,7,8,9,10,10a-octahydrophenanthridin-2-yl)cyclopropanecarboxamide] gave an Emax [1] of 53%, an EC50 [1] of 1700 nM and an Emax [2] of 49%. The EC50 [2] was 187 nM.
With `CCCCC(=O)Nc1ccc2c(c1)C1C3CCC(C3)C1C(c1ccc(C)cc1)N2` (stereo not drawn) [(29), Bridged N-(6-p-tolyl-5,6,6a,7,8,9,10,10a-octahydrophenanthridin-2-yl)pentanamide] the Emax [1] was less than 40%, the EC50 [1] was greater than 10000 nM and the Emax [2] was 54.8%. For the same molecule, the EC50 [2] was 66.7 nM.
With `Cc1ccc(C2Nc3ccc(S(=O)(=O)N4CCCCC4)cc3C3C4CCC(C4)C23)cc1` (stereo not drawn) [(10), Bridged 2-(piperidin-1-ylsulfonyl)-6-p-tolyl-5,6,6a,7,8,9,10,10a-octahydrophenanthridine] the Emax [1] was less than 40%, the EC50 [1] was greater than 10000 nM and the Emax [2] was 98%. For the same molecule, the EC50 [2] was 21 nM.
In the case of `CCCNC(=O)Nc1ccc2c(c1)C1C3CCC(C3)C1C(c1ccc(C)cc1)N2` (stereo not drawn) [(7), Bridged 1-propyl-3-(6-p-tolyl-5,6,6a,7,8,9,10,10a-octahydrophenanthridin-2-yl)urea], the Emax [1] is reported as less than 40%, the EC50 [1] is reported as greater than 10000 nM and the Emax [2] is reported as less than 40%. For the same molecule, the EC50 [2] was greater than 10000 nM.
`CC(=O)NS(=O)(=O)c1ccc2c(c1)C1C3CCC(C3)C1C(c1ccnn1C)N2` (stereo not drawn) [(47), Bridged N-(6-(1-methyl-1H-pyrazol-5-yl)-5,6,6a,7,8,9,10,10a-octahydrophenanthridin-2-ylsulfonyl)acetamide] gave an Emax [1] of less than 40%, an EC50 [1] greater than 10000 nM and an Emax [2] of 82.5%. It also gave an EC50 [2] of 1490 nM.
`CC(C)S(=O)(=O)Nc1ccc2c(c1)C1C3CCC(C3)C1C(c1ccccc1)N2` (stereo not drawn) [(51), Bridged N-(6-phenyl-5,6,6a,7,8,9,10,10a-octahydrophenanthridin-2-yl)propane-2-sulfonamide] gave an Emax [1] of 100%, an EC50 [1] of 2210 nM and an Emax [2] of 96.8%. The EC50 [2] was 1.62 nM.
With `Cc1nc(-c2ccc3c(c2)C2C4CCC(C4)C2C(c2ccnn2C)N3)cs1` (stereo not drawn) [(44), Bridged 2-methyl-4-(6-(1-methyl-1H-pyrazol-5-yl)-5,6,6a,7,8,9,10,1 0a-octahydrophenanthridin-2-yl)thiazole] the Emax [1] was 111%, the EC50 [1] was 2930 nM and the Emax [2] was 70.2%. For the same molecule, the EC50 [2] was 187 nM.
In the case of `Cn1nccc1C1Nc2ccc(S(=O)(=O)N3CCOCC3)cc2C2C3CCC(C3)C12` (stereo not drawn) [(37), Bridged 4-(6-(1-methyl-1H-pyrazol-5-yl)-5,6,6a,7,8,9,10,10a-octahydrophenanthridin-2-ylsulfonyl)morpholine], the Emax [1] is reported as less than 40%, the EC50 [1] is reported as greater than 10000 nM and the Emax [2] is reported as 92.6%. It also gave an EC50 [2] of 1.7 nM.
`Cn1nccc1C1Nc2ccc(S(N)(=O)=O)cc2C2C3CCC(C3)C12` (stereo not drawn) [(40), Bridged 6-(1-methyl-1H-pyrazol-5-yl)-5,6,6a,7,8,9,10,10a-octahydrophenanthridine-2-sulfonamide] showed an Emax [1] of less than 40%, an EC50 [1] greater than 10000 nM and an Emax [2] of 82.7%. For the same molecule, the EC50 [2] was 2000 nM.
`COCCC(=O)Nc1ccc2c(c1)C1C3CCC(C3)C1C(c1ccc(C)cc1)N2` (stereo not drawn) [(15), Bridged 3-methoxy-N-(6-p-tolyl-5,6,6a,7,8,9,10,10a-octahydrophenanthridin-2-yl)propanamide] showed an Emax [1] of 56%, an EC50 [1] of 2360 nM and an Emax [2] of less than 40%. For the same molecule, the EC50 [2] was greater than 10000 nM.
With `Cc1ccc(C2Nc3ccc(N4CCOCC4)cc3C3C4CCC(C4)C23)cc1` (stereo not drawn) [(18), Bridged 4-(6-p-tolyl-5,6,6a,7,8,9,10,10a-octahydrophenanthridin-2-yl)morpholine] the Emax [1] was less than 40%, the EC50 [1] was greater than 10000 nM and the Emax [2] was less than 40%. For the same molecule, the EC50 [2] was greater than 10000 nM.
Work on `O=C(NCC1CC1)c1ccc2c(c1)C1C3CCC(C3)C1C(c1ccccc1)N2` (stereo not drawn) [Compound (2d), Methylene bridged N-(cyclopropylmethyl)-6-phenyl-5,6,6a,7,8,9,10,10a-octahydrophenanthridine-2-carboxamide] yielded an Emax [1] of less than 40%, an EC50 [1] greater than 10000 nM and an Emax [2] of 84%. It also gave an EC50 [2] of 19 nM.
For `O=C(Nc1ccc2c(c1)C1C3CCC(C3)C1C(c1ccccc1)N2)c1cocn1` (stereo not drawn) [(13), Bridged N-(6-phenyl-5,6,6a,7,8,9,10,10a-octahydrophenanthridin-2-yl)oxazole-4-carboxamide], the Emax [1] was less than 40%, the EC50 [1] was greater than 10000 nM and the Emax [2] was 57%. It also gave an EC50 [2] of 680 nM.
Work on `CN(C)S(=O)(=O)c1ccc2c(c1)C1CC=CC1C(c1ccccc1)N2` (stereo not drawn) [(49), N,N-dimethyl-4-phenyl-3a,4,5,9b-tetrahydro-1H-cyclopenta[c]quinoline-8-sulfonamide] yielded an Emax [1] of 61.8%, an EC50 [1] of 1040 nM and an Emax [2] of less than 40%. It also gave an EC50 [2] greater than 10000 nM.
Work on `O=S(=O)(c1ccc2c(c1)C1C3CCC(C3)C1C(c1nccs1)N2)N1CCOCC1` (stereo not drawn) [(36), Bridged 4-(6-(thiazol-2-yl)-5,6,6a,7,8,9,10,10a-octahydrophenanthridin-2-ylsulfonyl)morpholine] yielded an Emax [1] of less than 40%, an EC50 [1] greater than 10000 nM and an Emax [2] of 57.1%. The EC50 [2] was 4120 nM.
`CN(C)S(=O)(=O)c1ccc2c(c1)C1C3CCC(C3)C1C(c1nccs1)N2` (stereo not drawn) [(31), Bridged N,N-dimethyl-6-(thiazol-2-yl)-5,6,6a,7,8,9,10,10a-octahydrophenanthridine-2-sulfonamide] was tested, and the Emax [1] was less than 40%, the EC50 [1] was greater than 10000 nM and the Emax [2] was 89.2%. The EC50 [2] was 103 nM.
With `CCCNC(=O)Nc1ccc2c(c1)C1C3CCC(C3)C1C(c1c(Cl)cccc1Cl)N2` (stereo not drawn) [(26), Bridged 1-(6-(2,6-dichlorophenyl)-5,6,6a,7,8,9,10,10a-octahydrophenanthridin-2-yl)-3-propylurea] the Emax [1] was less than 40%, the EC50 [1] was greater than 10000 nM and the Emax [2] was less than 40%. The EC50 [2] was greater than 10000 nM.
`CCCNC(=S)Nc1ccc2c(c1)C1C3CCC(C3)C1C(c1ccccc1)N2` (stereo not drawn) [(6), Bridged 1-propyl-3-(phenyl-5,6,6a,7,8,9,10,10a-octahydrophenanthridin-2-yl)thiourea] was tested, and the Emax [1] was 53%, the EC50 [1] was 1860 nM and the Emax [2] was 76%. For the same molecule, the EC50 [2] was 99.8 nM.
Molecule `CCCNC(=S)Nc1ccc2c(c1)C1C3CCC(C3)C1C(c1ccc(C)cc1)N2` (stereo not drawn) [(8), Bridged 1-propyl-3-(6-p-tolyl-5,6,6a,7,8,9,10,10a-octahydrophenanthridin-2-yl)thiourea] has an Emax [1] of 63%, an EC50 [1] of 2040 nM and an Emax [2] of less than 40%. The EC50 [2] was greater than 10000 nM.
`CC(=O)Nc1ccc(C2Nc3ccc(S(=O)(=O)N(C)C)cc3C3C4CCC(C4)C23)cc1` (stereo not drawn) [(32), Bridged N-(4-(2-(N,N-dimethylsulfamoyl)-5,6,6a,7,8,9,10,10a-octahydrophenanthridin-6-yl)phenyl)acetamide] showed an Emax [1] of less than 40%, an EC50 [1] greater than 10000 nM and an Emax [2] of 81.3%. The EC50 [2] was 225 nM.
